Experimental data reported in patent US6630497B2, “1-phenyl imidazol-2-one biphenylmethyl compounds for treatment of circulatory disorders” (G.D. Searle & Co, priority 1993, dated 2003).

Assays:
[1] = test system: pressor response to AII; test: Assay C: In Vivo Intragastric Pressor Assay Response for AII Antagonists; details: rat, 3 mg/kg intragastric (i.g.); for Assay C Inhibition (%): inhibition of pressor response to 30 ng/kg AII bolus; for Assay C Duration: duration of inhibition of AII pressor response, measured up to 180 min
Procedure: Male Sprague-Dawley rats weighing 225-300 grams were anesthetized with methohexital (30 mg/kg, i.p.) and catheters were implanted into the femoral artery and vein. The catheters were tunneled subcutaneously to exit dorsally, posterior to the head and between the scapulae. The catheters were filled with heparin (1000 units/ml of saline). The rats were returned to their cage and allowed regular rat chow and water ad libitum. After full recovery from surgery (3-4 days), rats were placed in Lucite holders and the arterial line was connected to a pressure transducer. Arterial pressure was recorded on a Gould polygraph (mmHg). Angiotensin II was administered as a 30 ng/kg bolus via the venous catheter delivered in a 50 μl volume with a 0.2 ml saline flush. The pressor response in mm Hg was measured by the difference from pre-injection arterial pressure to the maximum pressure achieved. The AII injection was repeated every 10 minutes until three consecutive injections yielded responses within 4 mmHg of each other. These three responses were then averaged and represented the control response to AII. The test compound was suspended in 0.5% methylcellulose in water and was administered by gavage. The volume administered was 2 ml/kg body weight. The standard dose was 3 mg/kg. Angiotensin II bolus injections were given at 30, 45, 60, 75, 120, 150, and 180 minutes after gavage. The pressor response to AII was measured at each time point. The rats were then returned to their cage for future testing. A minimum of 3 days was allowed between tests. Percent inhibition was calculated for each time point following gavage by the following formula: [(Control Response—Response at time point)/Control Response] ×100.

[2] = molecular target: smooth muscle angiotensin II receptor; test: Assay A: Angiotensin II Binding Activity (125I-AII displacement, rat uterine membrane preparation); details: 50% displacement of specifically bound 125I-AII, rat uterine membranes, 25° C., 60 min
Procedure: Compounds of the invention were tested for ability to bind to the smooth muscle angiotensin II receptor using a rat uterine membrane preparation. […] Other chemicals were obtained from Sigma Chemical Co. This assay was carried out according to the method of Douglas et al [Endocrinology, 106, 120-124 (1980)]. Rat uterine membranes were prepared from fresh tissue. All procedures were carried out at 4° C. Uteri were stripped of fat and homogenized in phosphate-buffered saline at pH 7.4 containing 5 mM EDTA. The homogenate was centrifuged at 1500×g for 20 min., and the supernatant was recentrifuged at 100,000×g for 60 min. The pellet was resuspended in buffer consisting of 2 mM EDTA and 50 mM Tris-HCl (pH 7.5) to a final protein concentration of 4 mg/ml. […] The reaction was initiated by the addition of membrane protein and the mixture was incubated at 25° C. for 60 min. The incubation was terminated with ice-cold 50 mM Tris-HCl (pH 7.5) and the mixture was filtered to separate membrane-bound labelled peptide from the free ligand. The incubation tube and filter were washed with ice-cold buffer. Filters were assayed for radioactivity in a Micromedic gamma counter. Nonspecific binding was defined as binding in the presence of 10 μM of unlabelled AII. Specific binding was calculated as total binding minus nonspecific binding.
Binding data were analyzed by a nonlinear least-squares curve fitting program.

[3] = test system: rabbit aortic rings; test: Assay B: In Vitro Vascular Smooth Muscle Response for AII; type: cell-based; set-up: key: NC = Non-competitive Antagonist; details: AII contraction
Procedure: The compounds of the invention were tested for antagonist activity in rabbit aortic rings. Male New Zealand white rabbits (2-2.5 kg) were sacrificed using an overdose of pentobarbital and exsanguinated via the carotid arteries. The thoracic aorta was removed, cleaned of adherent fat and connective tissue and then cut into 3-mm ring segments. The endothelium was removed from the rings by gently sliding a rolled-up piece of filter paper into the vessel lumen. The rings were then mounted in a water-jacketed tissue bath, maintained at 37° C., between moveable and fixed ends of a stainless steel wire with the moveable end attached to an FT03 Grass transducer coupled to a Model 7D Grass Polygraph for recording isometric force responses. The bath was filled with 20 ml of oxygenated (95% oxygen/5% carbon dioxide) Krebs solution of the following composition (mM): […], 1.2 NaH2P04, 1.2 MgS04, 2.5 CaCl2, and 11.4 glucose. The preparations were equilibrated for one hour before approximately one gram of passive tension was placed on the rings. Angiotensin II concentration-response curves were then recorded (3×10^−10 to 1×10^−5 M). […] The effectiveness of the test compound was expressed in terms of pA2 values and were calculated according to H. O. Schild [Br. J. Pharmacol. Chemother., 2,189-206 (1947)]. […] Each test antagonist was evaluated in aorta rings from two rabbits.

| Structure (SMILES) | melting point | IC50 [2] | Assay C Inhibition (%) [1] | Assay B pA2: type of antagonism [3] | Assay C Duration [1] |
| --- | --- | --- | --- | --- | --- |
| CCCCc1cn(-c2ccccc2C(C)C)c(=O)n1Cc1ccc(-c2ccccc2-c2nnn[nH]2)cc1 [Example 2, 1-(2-isopropylphenyl)-4-butyl-1,3-dihydro-3-[2′-(1H -tetrazol-5-yl)[1,1′-biphenyl]-4-ylmethyl]-2H-imidazol-2-one] | 167 to 168 °C | 0.097 µM | 70% | NC | > 180 min |
| CCCCc1cn(-c2c(OC)cccc2OC)c(=O)n1Cc1ccc(-c2ccccc2-c2nnn[nH]2)cc1 [Example 3, 1-(2,6-dimethoxyphenyl)-4-butyl-1,3-dihydro-3-[2′-(1H -tetrazol-5-yl)[1,1′-biphenyl]-4-ylmethyl]-2H-imidazol-2-one] | 189 to 191 °C (dec.) | 0.0098 µM | 25% |  | > 180 min |
| CCCCc1cn(-c2c(C)cccc2Cl)c(=O)n1Cc1ccc(-c2ccccc2-c2nnn[nH]2)cc1 [Example 4, 1-(2-chloro-6-methylphenyl) -4-butyl-1,3-dihydro-3-[2′-(1H-tetrazol-5-yl) [1,1′-biphenyl]-4-ylmethyl]-2H -imidazol-2-one] | 163 to 164 °C | 0.013 µM | 35% |  | > 180 min |
| CCCCc1cn(-c2c(C(C)C)cccc2C(C)C)c(=O)n1Cc1ccc(-c2ccccc2-c2nnn[nH]2)cc1 [Example 7, 1-(2,6-diisopropylphenyl)-4-butyl-1,3-dihydro-3-[2′-(1H-tetrazol-5-yl)[1,1′-biphenyl]-4-ylmethyl]-2H -imidazol-2-one] | 202 to 203 °C (dec.) | 0.19 µM |  |  |  |
| CCCCc1cn(-c2c(C)cc(C)cc2C)c(=O)n1Cc1ccc(-c2ccccc2-c2nnn[nH]2)cc1 [Example 8, 1-(2,4,6-trimethylphenyl)-4-butyl-1,3-dihydro-3-[2′-(1H-tetrazol-5-yl)[1,1′-biphenyl]-4-ylmethyl]-2H -imidazol-2-one] | 187 to 188 °C (dec.) | 0.03 µM | 50% |  | > 180 min |
| CCCCc1cn(-c2c(C)cc(C(C)(C)C)cc2C)c(=O)n1Cc1ccc(-c2ccccc2-c2nnn[nH]2)cc1 [Example 9, 1-(2,6-dimethyl-4-tertbutylphenyl) -4-butyl-1,3-dihydro-3-[2′-(1H-tetrazol-5-yl)[1,1′-biphenyl]-4-ylmethyl]-2H -imidazol-2-one] | 134 to 135 °C | 0.27 µM |  |  |  |

Now from value to molecule, other results behind:

| melting point | IC50 [2] | Structure (SMILES) | Assay C Inhibition (%) [1] | Assay B pA2: type of antagonism [3] | Assay C Duration [1] |
| --- | --- | --- | --- | --- | --- |
| 188 to 189 °C | 0.014 µM | CCCCc1cn(-c2ccccc2CC)c(=O)n1Cc1ccc(-c2ccccc2-c2nnn[nH]2)cc1 [Example 1, 1-(2-ethylphenyl)-4-butyl-1,3-dihydro-3-[2′-(1H-tetrazol-5-yl)[1,1′-biphenyl]-4-ylmethyl]-2H-imidazol-2-one] | 20%/— | NC |  |
| 177 to 178 °C (dec.) | 0.0063 µM | CCCCc1cn(-c2c(C)cccc2C)c(=O)n1Cc1ccc(-c2ccccc2-c2nnn[nH]2)cc1 [Example 5, 1-(2,6-dimethylphenyl)-4-butyl-1,3-dihydro-3-[2′-(1H-tetrazol-5-yl)[1,1′-biphenyl]-4-ylmethyl]-2H -imidazol-2-one] | 40% |  | > 180 min |
| 198 to 200 °C (dec.) | 0.033 µM | CCCCc1cn(-c2c(CC)cccc2CC)c(=O)n1Cc1ccc(-c2ccccc2-c2nnn[nH]2)cc1 [Example 6, 1-(2,6-diethylphenyl) -4-butyl-1,3-dihydro-3-[2′-(1H -tetrazol-5-yl) [1,1′-biphenyl]-4-ylmethyl]-2H-imidazol-2-one] | <20% |  |  |
